Consider 1 compound from patent publication US12239638B2, “Crystalline form of a 4-[2-(2-fluorophenoxymethyl)phenyl]piperidine compound” (THERAVANCE BIOPHARMA R&D IP, LLC, priority 2008, dated 2025).

The nature of series [1]: Thermal analysis by differential scanning calorimetry (DSC). In kind it is physicochemical. Particulars: heating ramp 10° C./min from 22° C. to 250° C. The procedure:
Differential scanning calorimetry (DSC) was performed using a TA Instruments Model Q-100 module with a Thermal Analyst controller. Data were collected and analyzed using TA Instruments Thermal Solutions software. A 2.8 mg sample of the crystalline hydrochloride salt of Example 2 was accurately weighed into a covered aluminum pan. After a 5 minute isothermal equilibration period at 22° C., the sample was heated using a linear heating ramp of 10° C./min from 22° C. to 250° C.

The target in another series is T1, hNET (Homo sapiens, UniProt P23975).
T1 construct: expressed in transfected cells; host or cells: HEK-293 derived cell line, stably transfected; membranes
T1 sequence (P23975 whole entry): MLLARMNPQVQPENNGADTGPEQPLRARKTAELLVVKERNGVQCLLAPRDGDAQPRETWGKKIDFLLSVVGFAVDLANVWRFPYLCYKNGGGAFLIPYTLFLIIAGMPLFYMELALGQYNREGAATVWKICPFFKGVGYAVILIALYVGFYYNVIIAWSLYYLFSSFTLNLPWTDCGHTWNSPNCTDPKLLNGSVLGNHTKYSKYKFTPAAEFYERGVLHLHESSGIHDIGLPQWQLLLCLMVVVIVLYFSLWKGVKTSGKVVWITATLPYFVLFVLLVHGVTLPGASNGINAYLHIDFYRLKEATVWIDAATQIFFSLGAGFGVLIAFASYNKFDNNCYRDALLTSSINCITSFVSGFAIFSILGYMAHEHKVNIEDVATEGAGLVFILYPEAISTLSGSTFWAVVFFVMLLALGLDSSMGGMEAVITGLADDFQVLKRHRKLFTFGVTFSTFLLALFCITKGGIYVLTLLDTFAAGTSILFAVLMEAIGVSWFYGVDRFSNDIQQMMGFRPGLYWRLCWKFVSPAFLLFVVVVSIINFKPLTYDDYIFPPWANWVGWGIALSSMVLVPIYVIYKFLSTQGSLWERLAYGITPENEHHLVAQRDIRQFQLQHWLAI
Nature of the series: hNET membrane radioligand binding assay (3H-nisoxetine). The settings on record: compound of Example 1 tested as TFA salt; read-out: NET pKi (converted). The procedure:
(§1) Membrane radioligand binding assays were used to measure competitive inhibition of labeled ligand (^3H-citalopram or ^3H-nisoxetine or ^3H-WIN35428) binding to membranes prepared from cells expressing the respective human recombinant transporter (hSERT or hNET or hDAT) in order to determine the pKi values of test compounds at the transporters.
(§2) Recombinant human embryonic kidney (HEK-293) derived cell lines stably transfected with hSERT or hNET, respectively, were grown in DMEM medium supplemented with 10% dialyzed FBS (for hSERT) or FBS (for hNET), 100 μg/ml penicillin, 100 μg/ml streptomycin, 2 mM L-glutamine and 250 μg/ml of the aminoglycoside antibiotic G418, in a 5% CO2 humidified incubator at 37° C. When cultures reached 80% confluence, the cells were washed thoroughly in PBS (without Ca^2+ and Mg^2+) and lifted with 5 mM EDTA in PBS. […] Protein concentration of the membrane suspension was determined using a Bio-Rad Bradford Protein Assay kit. […]
(§3) Following a 60 minute incubation at 22° C. […] Plates were dried overnight at room temperature, ˜45 μl of MicroScint™-20 (Perkin Elmer) added and bound radioactivity quantitated via liquid scintillation spectroscopy. Competitive inhibition curves and saturation isotherms were analyzed using GraphPad Prism Software package (GraphPad Software, Inc., San Diego, CA). […]

A further series deals with T2, hSERT (Homo sapiens, UniProt P31645).
T2 construct: expressed in transfected cells; host or cells: HEK-293 derived cell line, stably transfected; membranes
T2 sequence (P31645 whole entry): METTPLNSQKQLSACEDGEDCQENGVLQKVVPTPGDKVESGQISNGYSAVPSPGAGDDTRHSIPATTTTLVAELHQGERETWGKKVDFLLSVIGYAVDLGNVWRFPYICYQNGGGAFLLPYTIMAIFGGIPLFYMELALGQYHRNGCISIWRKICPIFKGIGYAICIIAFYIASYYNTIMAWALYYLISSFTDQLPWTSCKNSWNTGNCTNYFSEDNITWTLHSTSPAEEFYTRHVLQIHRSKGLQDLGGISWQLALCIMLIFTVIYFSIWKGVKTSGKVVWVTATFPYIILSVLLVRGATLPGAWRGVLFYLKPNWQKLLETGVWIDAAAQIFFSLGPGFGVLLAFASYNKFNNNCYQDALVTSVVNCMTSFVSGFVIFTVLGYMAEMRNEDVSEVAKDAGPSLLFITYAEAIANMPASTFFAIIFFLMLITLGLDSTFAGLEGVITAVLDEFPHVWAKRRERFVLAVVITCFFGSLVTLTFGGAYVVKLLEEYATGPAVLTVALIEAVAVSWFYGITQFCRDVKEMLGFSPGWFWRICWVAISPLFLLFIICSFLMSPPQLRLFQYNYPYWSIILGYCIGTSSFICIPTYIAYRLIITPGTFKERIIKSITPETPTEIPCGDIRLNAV
Nature of the series: hSERT membrane radioligand binding assay (3H-citalopram). Particulars: compound of Example 1 tested as TFA salt; read-out: SERT pKi (converted). The procedure: as §1, §2, §3

`Fc1cc(F)c(OCc2ccccc2C2CCNCC2)c(F)c1` [Example 1, 4-[2-(2,4,6-Trifluorophenoxymethyl)phenyl]piperidine]: the “thermal stability (thermal decomposition by DSC)” value in series [1] is “no thermal decomposition below 200.0 °C”. The Ki at hNET was at most 10 nM; on hSERT, at most 12.6 nM.
